Key:
Settings in all cases: binder
EphA5 = EphA5 (Homo sapiens, UniProt P54756)
DAPK1 = DAPK1 (Homo sapiens, UniProt P53355)
CDK2 = CDK2 (Homo sapiens, UniProt P24941)
CLK1 = CLK1 (Homo sapiens, UniProt P49759)
CaMK1g = CaMK1g (Homo sapiens, UniProt Q96NX5)
CaMK1d = CaMK1d (Homo sapiens, UniProt Q8IU85)
JNK3 = JNK3 (Homo sapiens, UniProt P53779)
DRAK1 = target: T1, DRAK1 (Homo sapiens, UniProt Q9UEE5)
T1 sequence (Q9UEE5 1-414): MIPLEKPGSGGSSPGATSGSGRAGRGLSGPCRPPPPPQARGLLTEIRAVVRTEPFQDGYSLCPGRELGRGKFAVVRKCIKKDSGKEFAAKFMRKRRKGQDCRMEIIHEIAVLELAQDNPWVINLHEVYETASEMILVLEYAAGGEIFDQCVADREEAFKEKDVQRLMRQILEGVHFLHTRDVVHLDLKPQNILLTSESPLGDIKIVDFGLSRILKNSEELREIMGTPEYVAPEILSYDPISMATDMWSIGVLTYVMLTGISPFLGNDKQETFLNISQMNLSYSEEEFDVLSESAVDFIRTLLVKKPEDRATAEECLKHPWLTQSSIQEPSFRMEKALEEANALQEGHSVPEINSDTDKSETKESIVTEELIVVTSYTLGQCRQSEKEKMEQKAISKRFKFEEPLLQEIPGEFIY

SRPK1 = SRPK1 (Homo sapiens, UniProt Q96SB4)
AAK1 = AAK1 (Homo sapiens, UniProt Q2M2I8)
GAK = target: T2, GAK (Homo sapiens, UniProt O14976)
T2 sequence (O14976 1-1311): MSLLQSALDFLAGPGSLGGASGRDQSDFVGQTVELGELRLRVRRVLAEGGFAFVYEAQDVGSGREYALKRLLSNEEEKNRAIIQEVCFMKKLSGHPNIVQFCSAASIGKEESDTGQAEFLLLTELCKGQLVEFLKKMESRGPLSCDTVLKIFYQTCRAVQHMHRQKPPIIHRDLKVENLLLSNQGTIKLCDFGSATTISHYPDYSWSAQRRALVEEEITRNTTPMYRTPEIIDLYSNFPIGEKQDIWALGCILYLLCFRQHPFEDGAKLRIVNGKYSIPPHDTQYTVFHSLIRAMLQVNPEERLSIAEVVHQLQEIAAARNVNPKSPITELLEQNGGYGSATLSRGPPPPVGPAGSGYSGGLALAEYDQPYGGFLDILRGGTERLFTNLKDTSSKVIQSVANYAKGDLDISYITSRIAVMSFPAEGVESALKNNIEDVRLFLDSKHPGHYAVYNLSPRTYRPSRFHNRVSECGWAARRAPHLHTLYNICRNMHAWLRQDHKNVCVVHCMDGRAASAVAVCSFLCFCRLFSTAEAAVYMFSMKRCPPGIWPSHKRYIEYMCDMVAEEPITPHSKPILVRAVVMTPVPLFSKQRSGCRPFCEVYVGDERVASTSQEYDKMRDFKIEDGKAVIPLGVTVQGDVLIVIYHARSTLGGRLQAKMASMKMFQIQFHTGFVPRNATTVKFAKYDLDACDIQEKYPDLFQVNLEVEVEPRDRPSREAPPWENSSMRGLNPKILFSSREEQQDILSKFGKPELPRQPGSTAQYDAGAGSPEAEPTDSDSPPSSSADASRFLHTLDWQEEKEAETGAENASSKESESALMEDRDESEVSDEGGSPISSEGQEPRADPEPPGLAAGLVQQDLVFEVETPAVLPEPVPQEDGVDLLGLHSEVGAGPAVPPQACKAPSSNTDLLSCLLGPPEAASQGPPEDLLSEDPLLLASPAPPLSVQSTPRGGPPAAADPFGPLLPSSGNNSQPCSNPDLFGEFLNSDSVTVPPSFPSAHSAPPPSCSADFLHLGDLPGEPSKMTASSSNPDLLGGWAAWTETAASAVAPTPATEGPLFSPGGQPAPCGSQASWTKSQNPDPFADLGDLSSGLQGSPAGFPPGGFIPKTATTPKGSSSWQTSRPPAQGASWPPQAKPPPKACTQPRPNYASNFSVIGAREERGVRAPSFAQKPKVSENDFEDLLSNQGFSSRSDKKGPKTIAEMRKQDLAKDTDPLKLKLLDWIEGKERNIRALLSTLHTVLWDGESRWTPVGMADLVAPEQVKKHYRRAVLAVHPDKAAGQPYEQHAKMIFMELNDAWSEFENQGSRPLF

TAF1 = TAF1 (Homo sapiens, UniProt P21675)
TAF1, sequence (P21675 whole entry): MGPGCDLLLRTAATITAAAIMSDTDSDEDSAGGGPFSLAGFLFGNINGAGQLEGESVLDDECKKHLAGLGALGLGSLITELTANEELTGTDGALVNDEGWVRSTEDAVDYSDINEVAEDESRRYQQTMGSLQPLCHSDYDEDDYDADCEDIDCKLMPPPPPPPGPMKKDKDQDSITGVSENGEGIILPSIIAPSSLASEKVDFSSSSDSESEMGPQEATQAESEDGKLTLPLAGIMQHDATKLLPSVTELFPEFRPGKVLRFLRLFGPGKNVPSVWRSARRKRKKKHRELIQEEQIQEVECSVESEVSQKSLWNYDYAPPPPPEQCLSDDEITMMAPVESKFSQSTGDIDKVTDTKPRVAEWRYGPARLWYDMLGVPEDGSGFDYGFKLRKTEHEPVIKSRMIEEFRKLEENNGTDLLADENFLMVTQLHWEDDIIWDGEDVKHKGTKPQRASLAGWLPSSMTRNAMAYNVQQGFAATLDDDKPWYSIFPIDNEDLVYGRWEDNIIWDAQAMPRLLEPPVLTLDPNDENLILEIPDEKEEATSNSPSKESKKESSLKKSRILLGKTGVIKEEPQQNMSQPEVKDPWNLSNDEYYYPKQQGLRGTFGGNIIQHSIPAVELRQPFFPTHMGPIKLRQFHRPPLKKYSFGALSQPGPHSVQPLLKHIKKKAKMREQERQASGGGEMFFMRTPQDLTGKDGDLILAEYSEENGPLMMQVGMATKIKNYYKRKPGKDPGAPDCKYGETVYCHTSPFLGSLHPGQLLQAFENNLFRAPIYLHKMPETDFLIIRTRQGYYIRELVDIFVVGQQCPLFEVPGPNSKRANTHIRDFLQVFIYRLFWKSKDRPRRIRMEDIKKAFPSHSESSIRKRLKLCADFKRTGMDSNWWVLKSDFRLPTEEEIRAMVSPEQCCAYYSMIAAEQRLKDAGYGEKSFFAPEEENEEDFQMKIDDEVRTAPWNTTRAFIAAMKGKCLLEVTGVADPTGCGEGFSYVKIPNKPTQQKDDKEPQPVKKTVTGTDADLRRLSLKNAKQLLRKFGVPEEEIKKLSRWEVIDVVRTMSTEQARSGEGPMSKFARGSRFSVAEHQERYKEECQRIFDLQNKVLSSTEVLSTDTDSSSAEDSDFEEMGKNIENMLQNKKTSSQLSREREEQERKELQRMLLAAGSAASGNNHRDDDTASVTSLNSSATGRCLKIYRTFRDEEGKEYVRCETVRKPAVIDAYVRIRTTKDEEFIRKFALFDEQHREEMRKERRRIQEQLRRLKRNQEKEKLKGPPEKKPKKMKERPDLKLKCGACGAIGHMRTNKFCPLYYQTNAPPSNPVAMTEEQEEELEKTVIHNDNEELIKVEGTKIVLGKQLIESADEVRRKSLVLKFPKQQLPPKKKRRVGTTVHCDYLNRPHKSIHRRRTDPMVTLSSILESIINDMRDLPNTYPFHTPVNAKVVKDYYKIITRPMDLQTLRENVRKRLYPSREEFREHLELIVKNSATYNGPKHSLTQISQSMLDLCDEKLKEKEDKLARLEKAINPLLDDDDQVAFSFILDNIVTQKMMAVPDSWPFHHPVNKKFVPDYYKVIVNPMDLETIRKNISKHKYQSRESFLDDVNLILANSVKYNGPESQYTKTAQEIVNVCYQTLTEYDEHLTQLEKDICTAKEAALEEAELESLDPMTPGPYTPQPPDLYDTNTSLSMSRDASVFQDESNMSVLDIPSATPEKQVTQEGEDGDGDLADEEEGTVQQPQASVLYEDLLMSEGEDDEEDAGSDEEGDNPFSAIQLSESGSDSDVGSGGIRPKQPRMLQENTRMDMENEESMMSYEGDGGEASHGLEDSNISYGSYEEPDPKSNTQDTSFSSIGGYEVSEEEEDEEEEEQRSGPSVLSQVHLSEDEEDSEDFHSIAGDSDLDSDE

CaMK1d, sequence (Q8IU85 whole entry): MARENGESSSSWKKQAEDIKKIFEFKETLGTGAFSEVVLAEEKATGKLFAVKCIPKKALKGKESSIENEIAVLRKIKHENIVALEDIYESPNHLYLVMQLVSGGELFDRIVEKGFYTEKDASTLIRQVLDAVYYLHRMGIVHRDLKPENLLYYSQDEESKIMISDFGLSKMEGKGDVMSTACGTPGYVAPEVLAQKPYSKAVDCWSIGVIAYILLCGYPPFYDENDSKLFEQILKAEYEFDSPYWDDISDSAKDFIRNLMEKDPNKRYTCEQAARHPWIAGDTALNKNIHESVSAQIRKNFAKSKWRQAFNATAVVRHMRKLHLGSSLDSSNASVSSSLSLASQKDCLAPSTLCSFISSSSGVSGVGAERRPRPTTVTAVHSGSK
DAPK1, sequence (P53355 whole entry): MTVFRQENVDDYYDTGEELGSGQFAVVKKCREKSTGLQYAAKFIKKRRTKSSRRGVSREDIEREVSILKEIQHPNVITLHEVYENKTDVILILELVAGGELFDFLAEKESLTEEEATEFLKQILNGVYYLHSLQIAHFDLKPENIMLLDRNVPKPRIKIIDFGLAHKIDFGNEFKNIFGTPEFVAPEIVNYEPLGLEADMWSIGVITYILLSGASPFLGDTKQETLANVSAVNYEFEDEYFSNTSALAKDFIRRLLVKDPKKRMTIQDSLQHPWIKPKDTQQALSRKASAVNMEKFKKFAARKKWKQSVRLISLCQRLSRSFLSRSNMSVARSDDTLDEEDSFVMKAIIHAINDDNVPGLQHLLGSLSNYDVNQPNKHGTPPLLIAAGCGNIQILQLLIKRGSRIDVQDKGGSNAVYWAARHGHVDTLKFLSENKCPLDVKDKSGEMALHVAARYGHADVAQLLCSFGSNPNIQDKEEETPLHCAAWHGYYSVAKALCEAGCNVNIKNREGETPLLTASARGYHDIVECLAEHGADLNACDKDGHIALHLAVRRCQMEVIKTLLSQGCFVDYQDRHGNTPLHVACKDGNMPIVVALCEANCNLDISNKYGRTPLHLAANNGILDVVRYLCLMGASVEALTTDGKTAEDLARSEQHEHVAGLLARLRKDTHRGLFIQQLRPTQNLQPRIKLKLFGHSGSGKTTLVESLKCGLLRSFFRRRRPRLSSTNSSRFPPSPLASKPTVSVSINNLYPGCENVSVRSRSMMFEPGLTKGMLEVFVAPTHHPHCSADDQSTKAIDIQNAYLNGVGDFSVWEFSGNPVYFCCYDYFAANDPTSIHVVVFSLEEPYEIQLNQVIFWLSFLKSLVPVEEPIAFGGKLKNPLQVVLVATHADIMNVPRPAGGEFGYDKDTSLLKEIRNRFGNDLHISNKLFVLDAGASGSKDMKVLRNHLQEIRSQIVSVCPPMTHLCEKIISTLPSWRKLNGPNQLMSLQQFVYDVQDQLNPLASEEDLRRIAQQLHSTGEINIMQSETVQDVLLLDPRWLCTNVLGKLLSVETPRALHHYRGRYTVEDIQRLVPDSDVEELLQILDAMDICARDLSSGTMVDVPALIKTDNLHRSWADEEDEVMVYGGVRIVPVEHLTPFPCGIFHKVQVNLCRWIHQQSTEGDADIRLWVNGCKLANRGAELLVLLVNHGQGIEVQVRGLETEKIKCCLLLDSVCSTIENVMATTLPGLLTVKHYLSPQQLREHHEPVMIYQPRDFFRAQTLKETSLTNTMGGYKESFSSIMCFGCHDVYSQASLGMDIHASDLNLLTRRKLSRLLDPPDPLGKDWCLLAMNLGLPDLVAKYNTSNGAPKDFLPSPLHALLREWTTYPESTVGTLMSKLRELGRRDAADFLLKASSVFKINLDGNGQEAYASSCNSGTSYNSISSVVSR
CaMK1g, sequence (Q96NX5 whole entry): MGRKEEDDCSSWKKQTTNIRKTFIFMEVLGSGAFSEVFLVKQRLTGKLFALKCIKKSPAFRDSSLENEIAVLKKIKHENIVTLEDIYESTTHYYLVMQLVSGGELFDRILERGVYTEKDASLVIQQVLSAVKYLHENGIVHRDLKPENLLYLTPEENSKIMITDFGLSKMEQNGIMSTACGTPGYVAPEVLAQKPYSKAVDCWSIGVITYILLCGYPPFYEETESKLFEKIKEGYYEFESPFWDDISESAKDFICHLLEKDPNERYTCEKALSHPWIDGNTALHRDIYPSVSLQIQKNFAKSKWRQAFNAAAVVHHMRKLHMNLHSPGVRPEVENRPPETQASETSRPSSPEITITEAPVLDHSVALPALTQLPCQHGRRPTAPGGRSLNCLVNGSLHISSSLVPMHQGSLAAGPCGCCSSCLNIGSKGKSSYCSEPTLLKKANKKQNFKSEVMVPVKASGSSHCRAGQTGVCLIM
SRPK1, sequence (Q96SB4 whole entry): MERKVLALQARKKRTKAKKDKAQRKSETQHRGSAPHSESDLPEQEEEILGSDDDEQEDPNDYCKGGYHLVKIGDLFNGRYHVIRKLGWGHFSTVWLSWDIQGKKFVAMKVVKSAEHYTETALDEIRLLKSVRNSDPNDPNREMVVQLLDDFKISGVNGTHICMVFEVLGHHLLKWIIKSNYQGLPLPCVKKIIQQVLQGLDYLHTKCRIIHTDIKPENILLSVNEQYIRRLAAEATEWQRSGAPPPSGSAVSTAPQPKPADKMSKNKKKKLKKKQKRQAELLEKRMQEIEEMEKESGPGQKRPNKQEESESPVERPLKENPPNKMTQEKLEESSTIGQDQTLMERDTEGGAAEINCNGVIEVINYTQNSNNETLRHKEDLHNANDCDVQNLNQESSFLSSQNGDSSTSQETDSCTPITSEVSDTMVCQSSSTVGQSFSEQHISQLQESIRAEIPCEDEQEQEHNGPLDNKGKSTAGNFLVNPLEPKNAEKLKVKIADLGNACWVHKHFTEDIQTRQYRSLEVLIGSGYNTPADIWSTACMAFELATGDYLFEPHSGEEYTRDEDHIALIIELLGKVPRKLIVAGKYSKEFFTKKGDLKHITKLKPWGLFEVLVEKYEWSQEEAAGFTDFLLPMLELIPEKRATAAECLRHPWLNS

For Cc1cccc(-c2ccc(-c3cc4cnc(Nc5ccc(F)c(CO)c5)nc4n(CCCCN)c3=O)c(Cl)c2)n1 [compound 33, 8-(4-Aminobutyl)-6-(2-chloro-4-(6-methylpyridin-2-yl)phenyl)-2-((4-fluoro-3-(hydroxymethyl)phenyl)amino)pyrido[2,3-d]pyrimidin-7(8H)-one], the “dTm 33” value (EphA5) was 6.8 °C, the “dTm 33” value (DAPK1) was -1.1 °C and the “dTm 33” value (CDK2) was 6.0 °C. For the same molecule, the “dTm 33” value (CLK1) was -0.2 °C, the “dTm 33” value (CaMK1g) was 6.7 °C and the “dTm 33” value (CaMK1d) was 5.9 °C. The “dTm 33” value (JNK3) was 5.2 °C, the “dTm 33” value (DRAK1) was 3.5 °C and the “dTm 33” value (SRPK1) was -0.2 °C. The “dTm 33” value (AAK1) was 4.1 °C, the “dTm 33” value (GAK) was 12.5 °C and the “dTm 33” value (TAF1) was -0.2 °C.
For COc1ccc(O)c(Nc2ncc3cc(-c4ccc(-c5cccc(C)n5)cc4Cl)c(=O)n(CCCCN)c3n2)c1 [compound 34, 8-(4-Aminobutyl)-6-(2-chloro-4-(6-methylpyridin-2-yl)phenyl)-2-((2-hydroxy-5-methoxy-phenyl)amino)pyrido[2,3-d]pyrimidin-7(8H)-one], the “dTm 34” value (EphA5) was 3.2 °C, the “dTm 34” value (DAPK1) was -0.8 °C and the “dTm 34” value (CDK2) was 1.4 °C. For the same molecule, the “dTm 34” value (CLK1) was -0.3 °C, the “dTm 34” value (CaMK1g) was 3.8 °C and the “dTm 34” value (CaMK1d) was 3.9 °C. For the same molecule, the “dTm 34” value (JNK3) was 3.0 °C, the “dTm 34” value (DRAK1) was 2.2 °C and the “dTm 34” value (SRPK1) was 0.1 °C. For the same molecule, the “dTm 34” value (AAK1) was 1.4 °C, the “dTm 34” value (GAK) was 9.3 °C and the “dTm 34” value (TAF1) was 0.1 °C.
In the case of COc1cc(N2CCOCC2)ccc1Nc1ncc2cc(-c3ccc(-c4cccc(C)n4)cc3Cl)c(=O)n(CCCCN)c2n1 [compound 35, 8-(4-Aminobutyl)-6-(2-chloro-4-(6-methylpyridin-2-yl)phenyl)-2-((2-methoxy-4-morpholino-phenyl)amino)pyrido[2,3-d]pyrimidin-7(8H)-one], the “dTm 35” value (EphA5) is reported as 4.2 °C, the “dTm 35” value (DAPK1) is reported as -2.1 °C and the “dTm 35” value (CDK2) is reported as 1.0 °C. The “dTm 35” value (CLK1) was -1.6 °C, the “dTm 35” value (CaMK1g) was 7.1 °C and the “dTm 35” value (CaMK1d) was 5.8 °C. For the same molecule, the “dTm 35” value (JNK3) was 2.3 °C, the “dTm 35” value (DRAK1) was 5.2 °C and the “dTm 35” value (SRPK1) was -0.5 °C. The “dTm 35” value (AAK1) was 3.0 °C, the “dTm 35” value (GAK) was 13.5 °C and the “dTm 35” value (TAF1) was -0.7 °C.
For COc1cc(N2CCN(C)CC2)ccc1Nc1ncc2cc(-c3ccc(-c4cccc(C)n4)cc3Cl)c(=O)n(CCCCN)c2n1 [compound 36, 8-(4-Aminobutyl)-6-(2-chloro-4-(6-methylpyridin-2-yl)phenyl)-2-((2-methoxy-4-(4-methylpiperazin-1-yl)phenyl)amino)pyrido[2,3-d]pyrimidin-7(8H)-one], the “dTm 36” value (EphA5) was 3.5 °C, the “dTm 36” value (DAPK1) was -1.2 °C and the “dTm 36” value (CDK2) was 0.6 °C. For the same molecule, the “dTm 36” value (CLK1) was -0.9 °C, the “dTm 36” value (CaMK1g) was 7.0 °C and the “dTm 36” value (CaMK1d) was 5.6 °C. For the same molecule, the “dTm 36” value (JNK3) was 1.1 °C, the “dTm 36” value (DRAK1) was 6.1 °C and the “dTm 36” value (SRPK1) was 0.0 °C. For the same molecule, the “dTm 36” value (AAK1) was 2.4 °C, the “dTm 36” value (GAK) was 11.7 °C and the “dTm 36” value (TAF1) was -0.4 °C.

Source: paper doi:10.1101/2023.11.24.568596v1 (biorxiv, 2023)
